From patent US20050256171A1, “Pyrrolidine derivatives as tryptase inhibitors” (Altana Pharma A G, priority 2002, published 2005)
Structures can show the parent of a compound that is named as a salt.

Molecular target: human tryptase
Assay: Inhibition of human tryptase (apparent dissociation constant, chromogenic substrate tos-Gly-Pro-Arg-pNA)
Assay type: biochemical
Conditions: pKiapp = -log Kiapp (mol/l); in the presence of substrate; heparin 0.1-50 μg/ml
Text: The documented pathophysiological effects of mast cell tryptase are brought about directly by the enzymatic activity of the protease. Accordingly, they are reduced or blocked by inhibitors which inhibit the enzymatic activity of tryptase. A suitable measure of the affinity of a reversible inhibitor for the target protease is the equilibrium dissociation constant Ki of the enzyme/inhibitor complex. This value of Ki can be determined via the influence of the inhibitor on the tryptase-induced cleavage of a chromogenic peptide-p-nitroanilide substrate or of a fluorogenic peptide-aminomethylcoumarin substrate.
The dissociation constants for the tryptase/inhibitor complexes are determined under equilibrium conditions in accordance with the general proposals of Bieth (Bieth J G, Pathophysiological Interpretation of kinetic constants of protease inhibitors, Bull. Europ. Physiopath. Resp. 16:183-195,1980) and the methods of Sommerhoff et al. (Sommerhoff C P et al., A Kazal-type Inhibitor of human mast cell tryptase: Isolation from the medical leech Hirudo medicinalis, characterization, and sequence analysis, Biol. Chem. Hoppe-Seyler 375: 685-694, 1994).
Human tryptase is prepared pure from lung tissue or is prepared by recombination; the specific activity of the protease which has been determined by titration is normally more than 85% of the theoretical value. Constant amounts of the tryptase are incubated in the presence of heparin (0.1-50 μg/ml) to stabilize the protease with increasing amounts of the inhibitors. After equilibrium has been reached between the reactants, the remaining enzymic activity is determined after addition of the peptide-p-nitroanilide substrate tos-Gly-Pro-Arg-pNA, whose cleavage is followed at 405 nm for 3 min. Alternatively, the remaining enzymatic activity can also be determined using fluorogenic substrates. The apparent dissociation constants Klapp (i.e. in the presence of substrate) are then found by nonlinear regression by fitting the enzyme rates to the general equation for reversible inhibitors (Morrison J F, Kinetics of the reversible inhibition of enzyme catalysed reactions by tight-binding inhibitors, Biochim. Biophys. Acta 185, 269-286, 1969): Vl/V0=1−{Et+It+Klapp−[(Et+It+Klapp)^2−4EtIt]^1/2}/2Et
In this, Vl and V0 are the rates respectively in the presence and absence of the inhibitor and Et and It are the concentrations of tryptase and of the inhibitor.
The apparent dissociation constants found for the compounds of the invention are evident from the following table A, in which the numbers of the compounds correspond to the numbers of the compounds in the examples [pKlapp=−logKlapp(mol/l)].

Compound | pKiapp
COC(=O)Cc1cc(C#CCOC(=O)NCc2ccc(N)nc2)cc(C#CCOC(=O)NC2CC(C(=O)OC)N(C(=O)CCc3cccc(CN)c3)C2)c1 (stereo not shown) [Compound 3, dihydrochloride] | 7.80
COC(=O)Cc1cc(C#CCOC(=O)NCc2ccnc(N)c2)cc(C#CCOC(=O)NC2CC(C(=O)OC)N(C(=O)CCc3ccc(CN)cc3)C2)c1 (stereo not shown) [Compound 5, dihydrochloride] | 6.00
COC(=O)Cc1cc(C#CCOC(=O)NCc2ccc(N)nc2)cc(C#CCOC(=O)NC2CC(C(=O)OC)N(C(=O)CCc3ccc(CN)cc3)C2)c1 (stereo not shown) [Compound 4, dihydrochloride] | 6.57
COC(=O)Cc1cc(C#CCOC(=O)NCc2ccnc(N)c2)cc(C#CCOC(=O)NC2CC(C(=O)OC)N(C(=O)CCc3cccc(CN)c3)C2)c1 (stereo not shown) [Compound 6, dihydrochloride] | 7.19
